Like-named read-outs stand apart in the source and are kept apart here. Where a SMILES comes first, the peptide text is derived from it. Bridges are numbered along the chain shown (N, C = ends). [ ]: non-standard residue; d: D form. hPhe(3-Cl-4-CF3) = N[C@@H](CCc1ccc(C(F)(F)F)c(Cl)c1)C(=O)O; NPrPhe(4-CF3) = CCCN[C@@H](Cc1ccc(C(F)(F)F)cc1)C(=O)O; NMeGly(cPent) = CN[C@H](C(=O)O)C1CCCC1; NMeD = CN[C@@H](CC(=O)O)C(=O)O; NMeL = CN[C@@H](CC(C)C)C(=O)O; Ac4c = NC1(C(=O)O)CCC1; Sar = CNCC(=O)O
Experiments:
[1] = target: GDP-bound KRAS wild-type protein (Homo sapiens, UniProt P01116); test: Binding to KRAS by surface plasmon resonance (SPR), Single Cycle Kinetics; details: GDP-bound KRAS wild-type protein, read-out: KRAS KD
[2] = target: GDP-bound NRAS wild-type protein (Homo sapiens, UniProt P01111); test: Binding to NRAS by surface plasmon resonance (SPR), Single Cycle Kinetics; details: for NRAS/KRAS (ratio of KD value for NRAS to KD value for KRAS) / NRAS/KRAS (ratio of KD value with respect to NRAS to KD value with respect to KRAS): SPR, GDP-bound NRAS wild-type protein vs GDP-bound KRAS wild-type protein
[3] = target: GDP-bound HRAS wild-type protein (Homo sapiens, UniProt P01112); test: Binding to HRAS by surface plasmon resonance (SPR), Single Cycle Kinetics; details: for HRAS/KRAS (ratio of KD value for HRAS to KD value for KRAS) / HRAS/KRAS (ratio of KD value with respect to HRAS to KD value with respect to KRAS): SPR, GDP-bound HRAS wild-type protein vs GDP-bound KRAS wild-type protein
[4] = SPR Single Cycle Kinetics, 1:1 binding model

GDP-bound KRAS wild-type protein, sequence (P01116 whole entry): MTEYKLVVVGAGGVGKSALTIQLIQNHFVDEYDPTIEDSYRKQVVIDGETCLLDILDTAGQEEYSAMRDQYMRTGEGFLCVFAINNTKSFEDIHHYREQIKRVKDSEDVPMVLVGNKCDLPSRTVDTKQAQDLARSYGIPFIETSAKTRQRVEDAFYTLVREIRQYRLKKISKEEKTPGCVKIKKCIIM
GDP-bound NRAS wild-type protein, sequence (P01111 whole entry): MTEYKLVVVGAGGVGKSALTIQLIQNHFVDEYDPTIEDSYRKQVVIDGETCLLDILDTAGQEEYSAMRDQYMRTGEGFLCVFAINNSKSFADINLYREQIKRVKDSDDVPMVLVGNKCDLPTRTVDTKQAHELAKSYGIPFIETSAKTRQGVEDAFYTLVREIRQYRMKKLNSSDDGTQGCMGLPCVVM
GDP-bound HRAS wild-type protein, sequence (P01112 whole entry): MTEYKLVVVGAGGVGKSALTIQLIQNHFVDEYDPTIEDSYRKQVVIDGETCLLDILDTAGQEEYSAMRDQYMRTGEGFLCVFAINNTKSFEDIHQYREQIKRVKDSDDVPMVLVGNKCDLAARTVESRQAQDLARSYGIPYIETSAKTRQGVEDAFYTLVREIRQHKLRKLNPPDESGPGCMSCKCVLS

SMILES	Kd [1, 4] [nM]	Kd ([1]; SPR, Single Cycle Kinetics) [nM]	NRAS/KRAS (ratio of KD value with respect to NRAS to KD value with respect to KRAS) [2]	HRAS/KRAS (ratio of KD value with respect to HRAS to KD value with respect to KRAS) [3]	NRAS/KRAS (ratio of KD value for NRAS to KD value for KRAS) [2]	HRAS/KRAS (ratio of KD value for HRAS to KD value for KRAS) [3]	further results
CCC[C@H]1C(=O)N[C@@H]([C@@H](C)CC)C(=O)N(C)CC(=O)N(C)[C@H]2C/C=C\CCN(C2=O)[C@@H](Cc2ccc(C(F)(F)F)cc2)C(=O)N(C)CC(=O)N[C@@H](CCc2cc(F)c3c(c2)CCC3)C(=O)N2C[C@H](OCC)C[C@H]2C(=O)NC2(CC(C)(C)C2)C(=O)N(C)[C@@H](C2CCCC2)C(=O)N(C)[C@H](C(=O)N(C)C)CC(=O)N1C [PP2849]	0.58	–	–	–	–	–	NRAS/KRAS (ratio of KD value with respect to GDP-bound NRAS wild-type protein to KD value with respect to KRAS) ([2]; SPR KD ratio NRAS/KRAS, class symbols): A (a compound having 10 or more and less than 20 is denoted as A); HRAS/KRAS (ratio of KD value with respect to GDP-bound HRAS wild-type protein to KD value with respect to KRAS) ([3]; SPR KD ratio HRAS/KRAS, class symbols): A (a compound having 10 or more and less than 20 is denoted as A)
CCO[C@@H]1C[C@H]2C(=O)NC3(CCCC3)C(=O)N(C)[C@@H](C3CCCC3)C(=O)N(C)[C@H](C(=O)N(C)C)CC(=O)N(C)[C@@H](CC)C(=O)N[C@@H]([C@@H](C)CC)C(=O)N(C)CC(=O)N(C)[C@H]3C[C@H](C)C(C)CN(C3=O)[C@@H](Cc3ccc(C(F)(F)F)cc3)C(=O)N(C)CC(=O)N[C@@H](CCc3cc(F)c(C(F)(F)F)c(F)c3)C(=O)N2C1 (stereo partly drawn) [PP1347]	–	–	–	–	–	–	Kd ([1]; SPR, Single Cycle Kinetics, 1:1 binding model): 0.017 nM; NRAS/KRAS (ratio of KD value for NRAS to KD value for KRAS) ([2]; KD ratio class): B (a compound having 3 or more and less than 10 is denoted as B); HRAS/KRAS (ratio of KD value for HRAS to KD value for KRAS) ([3]; KD ratio class): B (a compound having 3 or more and less than 10 is denoted as B)
CCO[C@@H]1C[C@H]2C(=O)NC3(CCC3)C(=O)N(C)[C@@H](C3CCCC3)C(=O)N(C)[C@H](C(=O)N3CCOCC3)CC(=O)N(C)[C@@H](CC3CCCC3)C(=O)N[C@@H]([C@@H](C)CC)C(=O)N(C)CC(=O)N(C)[C@H]3CCCCN(C3=O)[C@@H](Cc3ccc(C(F)(F)F)cc3)C(=O)N(C)CC(=O)N[C@@H](CCc3cc(F)c(C(F)(F)F)c(F)c3)C(=O)N2C1 [PP0715]	0.035	–	C (A compound having a KD ratio of 0.1 or more and less than 3 is denoted as C)	B (a compound having 3 or more and less than 10 is denoted as B)	–	–	–
CCC[C@H]1C(=O)N[C@@H]([C@@H](C)CC)C(=O)N(C)CC(=O)N(C)[C@H]2C/C=C\CCN(C2=O)[C@@H](Cc2ccc(C)cc2)C(=O)N(C)CC(=O)N[C@@H](CCc2cc(F)c(C(F)(F)F)c(F)c2)C(=O)N2CC3(CC3)C[C@H]2C(=O)NC2(CC(C)(C)C2)C(=O)N(C)[C@@H](CC(F)(F)F)C(=O)N(C)[C@H](C(=O)N(C)C)CC(=O)N1C [PP3003]	–	0.72	–	–	AA (a compound having 20 or more is denoted as AA)	A (a compound having 10 or more and less than 20 is denoted as A)	–
CCCN1C(=O)CN(C)C(=O)CN(C)C(=O)[C@H]([C@@H](C)CC)NC(=O)[C@H](CC(C)C)N(C)C(=O)C[C@@H](C(=O)N(C)C)N(C)C(=O)[C@H](C2CCCC2)N(C)C(=O)C2(CCC2)NC(=O)[C@@H]2CCCN2C(=O)[C@H](CCc2ccc(C(F)(F)F)c(Cl)c2)NC(=O)CN(C)C(=O)[C@@H]1Cc1ccc(C(F)(F)F)cc1 [PP0412] ([NMeL]I[Sar][Sar][NPrPhe(4-CF3)][Sar][hPhe(3-Cl-4-CF3)]P[Ac4c][NMeGly(cPent)][NMeD]-NMe2; lactam N-11)	0.043	–	B (a compound having 3 or more and less than 10 is denoted as B)	C (A compound having a KD ratio of 0.1 or more and less than 3 is denoted as C)	–	–	–
CCO[C@@H]1C[C@H]2C(=O)NC3(CC(C)(C)C3)C(=O)N(C)[C@@H](C(CC)CC)C(=O)N(C)[C@H](C(=O)N(C)C)CC(=O)N(C)[C@@H](CC3CC3)C(=O)N[C@@H]([C@@H](C)CC)C(=O)N(C)CC(=O)N(C)[C@H]3C/C=C\CCN(C3=O)[C@@H](Cc3ccc(C(F)(F)F)cc3)C(=O)N(C)CC(=O)N[C@@H](CCc3ccc(C(F)(F)F)c(OC)c3)C(=O)N2C1 [PP2155]	–	0.37	–	–	A (a compound having 10 or more and less than 20 is denoted as A)	B (a compound having 3 or more and less than 10 is denoted as B)	–
